Assay [1] deals with T1, full-length bcMalT (EIIB and EIIC domains) (Bacillus cereus, UniProt Q63GK8).
T1 sequence (Q63GK8 1-545): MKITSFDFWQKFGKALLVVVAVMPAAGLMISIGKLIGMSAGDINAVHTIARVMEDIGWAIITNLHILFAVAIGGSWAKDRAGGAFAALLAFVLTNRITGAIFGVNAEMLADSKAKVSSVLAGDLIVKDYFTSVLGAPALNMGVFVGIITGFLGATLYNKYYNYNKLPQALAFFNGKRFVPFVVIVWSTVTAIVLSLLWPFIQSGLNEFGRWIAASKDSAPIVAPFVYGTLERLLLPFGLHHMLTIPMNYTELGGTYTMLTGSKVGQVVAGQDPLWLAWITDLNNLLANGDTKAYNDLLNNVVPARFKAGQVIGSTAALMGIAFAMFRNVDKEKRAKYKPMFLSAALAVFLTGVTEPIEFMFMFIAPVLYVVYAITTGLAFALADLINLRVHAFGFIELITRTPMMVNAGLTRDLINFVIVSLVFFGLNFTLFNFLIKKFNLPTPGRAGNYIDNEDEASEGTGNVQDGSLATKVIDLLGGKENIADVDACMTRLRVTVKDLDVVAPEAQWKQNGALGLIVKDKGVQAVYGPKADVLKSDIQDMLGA
Put plainly: scintillation proximity assay, competition with [3H]maltose. The following applies: 1 μM [3H]maltose, 4 mM LDAO, pH 7.5, 150 mM NaCl, 4 °C; homologous competition. It counts as binding. On the technique in general: Scintillation proximity formats need no separation of bound from free tracer.

Assay [2] concerns the target T1, full-length bcMalT (EIIB and EIIC domains). The description is as above. The following applies: 1 μM [3H]maltose, 4 mM LDAO, pH 7.5, 150 mM NaCl, 4 °C. It counts as binding.

As a reminder, the IC50 is the concentration at which inhibition is half-maximal. Read a high IC50 as a need for much substance. As to `OC[C@H]1O[C@H](O[C@H]2[C@H](O)[C@@H](O)C(O)O[C@@H]2CO)[C@H](O)[C@@H](O)[C@@H]1O` (some centres unmarked) [maltose], in assay [1], the 50% inhibitory concentration (IC50) came to 4.5 ± 1.1 µM. Consider `OC[C@H]1O[C@@](CO)(O[C@H]2O[C@H](CO)[C@@H](O)[C@H](O)[C@H]2O)[C@@H](O)[C@@H]1O` [sucrose], for which the “binding competition at 500 μM” value in assay [2] is “No significant binding was observed for a number of other sugars tested, with the exception of sucrose”.
